According to article PMC6222476 (Molecules : A Journal of Synthetic Chemistry and Natural …, 2018):
Where two headings read alike, the source gives them in different places.

Assays:
[1] = tested on: IMR-32 neuroblastoma cell line; assay: cells; format: cell-based, human; conditions: SRB assay, 48 h
Method: (§1) All the newly synthesized compounds were screened for their in vitro anticancer activity against six cancer cell lines: SK-MEL-2, MCF-7, IMR-32, MG-63, HT-29 and Hep-G2 by SRB assay, using adriamycin as a standard drug. All the synthesized derivatives 4(a–n) were also tested for their cytotoxic effect on normal cell lines i.e., NIH/3T3 (murine embryonic fibroblast by the SRB assay method. The cell lines were grown in RPMI 1640 medium containing 10% fetal bovine serum and 2 mM L-glutamine. For the present screening experiments, cells were inoculated into 96 well microtiter plates in 90 µL at 5000 cells per well. After cell inoculation, the microtiter plates were incubated at 37 °C, 5% CO2, 95% air and 100% relative humidity for 24 h prior to addition of experimental drugs. Experimental drugs were solubilized in appropriate solvent to prepare stock of 10^−2 concentration. At the time of experiment four 10-fold serial dilutions were made using complete medium. Aliquots of 10 µL of these different drug dilutions were added to the appropriate micro-titer wells already containing 90 µL of medium, resulting in the required final drug concentrations. After compound addition, plates were incubated at standard conditions for 48 h. and assay was terminated by the addition of cold trichloroacetic acid (TCA). Cells were fixed in situ by the gentle addition of […] (final concentration, 10% TCA) and incubated for 60 min at 4 °C. The supernatant was discarded; the plates were washed five times with tap water and air dried.
(§2) Sulforhodamine B (SRB) solution (50 µL) at 0.4% (w/v) in 1% acetic acid was added to each of the wells, and plates were incubated for 20 min at room temperature. After staining, unbound dye was recovered and the residual dye was removed by washing five times with 1% acetic acid. The plates were air dried. Bound stain was subsequently eluted with 10 mM trizma base, and the absorbance was read on an ELISA plate reader at a wavelength of 540 nm with 690 nm reference wavelength. All the tests were repeated in at least three independent experiments at the concentrations of 10, 20, 40 and 80 µg/mL [57].

[2] = tested on: HT-29 human colon cancer cell line; assay: cells; format: cell-based; conditions: for GI50: SRB assay, 48 h, HT-29; for anticancer activity compared with standard drug adriamycin, HT-29: HT-29 (human colon cancer) cell line
Method: as §1, §2

[3] = tested on: Hep-G2 human hepatoma cell line; assay: cells; format: cell-based; conditions: for GI50: SRB assay, 48 h, Hep-G2
Method: as §1, §2

[4] = tested on: MCF-7 human breast cancer cell line; assay: cells; format: cell-based; conditions: 48 h
Method: as §1, §2

[5] = tested on: MG-63 human osteosarcoma cell line; assay: cells; format: cell-based; conditions: SRB assay, 48 h
Method: as §1, §2

[6] = tested on: SK-MEL-2 human melanoma cancer cell line; assay: cells; format: cell-based; conditions: SRB assay, 48 h, read-out: GI50 SKMEL-2
Method: as §1, §2

[7] = tested on: NIH/3T3 normal murine embryonic fibroblast cell line; assay: in vitro; format: cell-based; conditions: SRB assay
Method: as §1, §2

Swiss albino mice = assay: In vivo acute oral toxicity study and gross behavioral studies (OECD Guideline no. 425); design: key to Additional Observation: Convulsions / Behavioral Observation: Motor Activity / Behavioral Observation: Stereotypy / Behavioral Observation: Tremors / Behavioral Observation: Catalepsy / Behavioral Observation: Sedation / Behavioral Observation: Hypnosis / Behavioral Observation: Muscle Spasm / Behavioral Observation: Analgesia / Behavioral Observation: Arching & Rolling / Additional Observation: Skin and Fur / Additional Observation: Eyes Lacrimation / Additional Observation: Salivation / Additional Observation: Diarrhea / Additional Observation: Respiration / Additional Observation: Straub Tail / Additional Observation: Pilo Erection: N. no; Y: Yes; conditions: for Additional Observation: Convulsions / Additional Observation: Diarrhea / Additional Observation: Eyes Lacrimation / Additional Observation: Pilo Erection / Additional Observation: Respiration / Additional Observation: Salivation / Additional Observation: Skin and Fur / Additional Observation: Straub Tail / Behavioral Observation: Analgesia / Behavioral Observation: Arching & Rolling / Behavioral Observation: Catalepsy / Behavioral Observation: Hypnosis / Behavioral Observation: Motor Activity / Behavioral Observation: Muscle Spasm / Behavioral Observation: Sedation / Behavioral Observation: Stereotypy / Behavioral Observation: Tremors / No. of Death / Toxicity: Swiss albino mice; for Additional Observation: Convulsions / Additional Observation: Diarrhea / Additional Observation: Eyes Lacrimation / Additional Observation: Pilo Erection / Additional Observation: Respiration / Additional Observation: Salivation / Additional Observation: Skin and Fur / Additional Observation: Straub Tail / Behavioral Observation: Analgesia / Behavioral Observation: Arching & Rolling / Behavioral Observation: Catalepsy / Behavioral Observation: Hypnosis / Behavioral Observation: Motor Activity / Behavioral Observation: Muscle Spasm / Behavioral Observation: Sedation / Behavioral Observation: Stereotypy / Behavioral Observation: Tremors: single oral dose; for No. of Death / Toxicity: single oral dose 100-2000 mg/kg; for lethal dose / mortality: mice, oral; for mortality: up to 2000 mg/kg
Method: The in vivo acute oral toxicity study for the newly synthesized scaffolds 4b and 4h was performed according to the OECD Guideline no. 425 [60] using Swiss albino mice (18–22 gm weight) quarantined at the animal house at Y.B. Chavan College of Pharmacy, Aurangabad IAEC approval number CPCSEA/IAEC/P’col-52/2015-16/115. Each group consisted of six mice (overnight fasted) and kept in a colony cage at 25 ± 2 °C with 55% relative humidity and 12 h of light and dark cycle. A specified dose of 100, 250, 500, 750, 1000, 1500 and 2000 mg/kg body weight of mice was administered orally as a single dose. The acute toxic symptoms and the behavioral changes produced by the test compounds were observed continuously for 4 h periods at 8th, 12th and 24th h. Onset of toxic symptoms and the gross behavioral changes were also recorded. These animals were maintained for further 10 days with observations made daily. In case the animal appeared moribund (dying) the animal was sacrificed in a humane way and it is considered to have died because of toxicity.

in vitro = format: cell-based; conditions: mouse, NIH/3T3 normal murine embryonic fibroblast cells; SRB assay, normal murine embryonic fibroblast cell line
Method: as §1, §2

## CCOP(=O)(OCC)C(NN=C1C(=O)Nc2ccccc21)c1ccc(F)cc1 (centres unmarked) [4c, Diethyl(4-flurophenyl)(2-(2-oxoindolin-3-ylidene)hydrazinyl)methylphosphonate]
[1]
  GI50: > 100 µM
[2]
  GI50: 20.8 µM
[3]
  GI50: 32 µM
[4]; SRB assay
  GI50: > 100 µM
[5]
  GI50: < 0.1 µM
[6]
  GI50: 57.5 µM
[7]
  GI50: > 250 µM

## CCOP(=O)(OCC)C(NN=C1C(=O)Nc2ccccc21)c1ccc(OC)cc1 (centres unmarked) [4d, (Z)-Diethyl(4-methoxyphenyl)(2-(2-oxoindolin-3-ylidene)hydrazinyl)methylphosphonate]
[1]
  GI50: > 100 µM
[2]
  anticancer activity compared with standard drug adriamycin, HT-29: equipotent
  GI50: < 0.1 µM
[3]
  GI50: 45.3 µM
[4]; SRB assay
  GI50: > 100 µM
[5]
  GI50: < 0.1 µM
[6]
  GI50: 65.7 µM
[7]
  GI50: > 250 µM

## CCOP(=O)(OCC)C(NN=C1C(=O)Nc2ccccc21)c1ccccc1 (centres unmarked) [4a, Diethyl(phenyl)(2-(2-oxoindolin-3-ylidene)hydrazinyl)methylphosphonate]
[1]
  GI50: > 100 µM
[2]
  GI50: 56.9 µM
[3]
  GI50: 55.2 µM
[4]; SRB assay
  GI50: > 100 µM
[5]
  GI50: < 0.1 µM
[6]
  GI50: 56.9 µM
[7]
  GI50: > 250 µM

## CCOP(=O)(OCC)C(NN=C1C(=O)Nc2ccccc21)c1ccco1 (centres unmarked) [4j, (Z)-Diethylfuran-2-yl(2-(2-oxoindolin-3-ylidene)hydrazinyl)methylphosphonate]
[1]
  GI50: > 100 µM
[2]
  anticancer activity compared with standard drug adriamycin, HT-29: equipotent
  GI50: < 0.1 µM
[3]
  GI50: 44.6 µM
[4]; SRB assay
  GI50: > 100 µM
[5]
  GI50: < 0.1 µM
[6]
  GI50: 93.9 µM
[7]
  GI50: > 250 µM

## CCOc1cc(C(N/N=C2\C(=O)Nc3ccccc32)P(=O)(OCC)OCC)ccc1O (centres unmarked) [4h, (Z)-Diethyl(3-ethoxy-4-hydroxyphenyl)(2-(2-oxoindolin-3-ylidene)hydrazinyl)methylphosphonate]
[1]
  GI50: > 100 µM
[2]
  GI50: 4.1 µM
[3]
  GI50: 43.8 µM
[4]; SRB assay
  GI50: 70.7 µM
[5]
  GI50: < 0.1 µM
[6]
  GI50: 51 µM
[7]
  GI50: > 250 µM
Swiss albino mice
  Additional Observation: Convulsions: N
  Additional Observation: Diarrhea: N
  Additional Observation: Eyes Lacrimation: N
  Additional Observation: Pilo Erection: Y
  Additional Observation: Respiration: N
  Additional Observation: Salivation: N
  Additional Observation: Skin and Fur: N
  Additional Observation: Straub Tail: N
  Behavioral Observation: Analgesia: N
  Behavioral Observation: Arching & Rolling: N
  Behavioral Observation: Catalepsy: N
  Behavioral Observation: Hypnosis: N
  Behavioral Observation: Motor Activity: Y
  Behavioral Observation: Muscle Spasm: N
  Behavioral Observation: Sedation: N
  Behavioral Observation: Stereotypy: N
  Behavioral Observation: Tremors: N
  No. of Death: Nil
  Toxicity: free of any toxicity and Nil
  lethal dose: above 2000 mg/kg body weight
  mortality: No mortality

## COc1cccc2c1C(=O)c1c(O)c3c(c(O)c1C2=O)C[C@@](O)(C(=O)CO)C[C@@H]3O[C@H]1C[C@H](N)[C@H](O)[C@H](C)O1 [ADR, Adriamycin, reference compound]
[1]; Homo sapiens
  GI50: < 0.1 µM
[2]; Homo sapiens
  GI50: < 0.1 µM
[3]; Homo sapiens, HepG2
  GI50: < 0.1 µM
[4]; Homo sapiens, MCF7, SRB assay
  GI50: < 0.1 µM
[5]; Homo sapiens
  GI50: < 0.1 µM
[6]; Homo sapiens
  GI50: < 0.1 µM
In vitro
  GI50 at 48 h: 82.2 µM

## CCOP(=O)(OCC)C(NN=C1C(=O)Nc2ccccc21)c1ccc(Cl)cc1 (centres unmarked) [4b, Diethyl(4-chlorophenyl)(2-(2-oxoindolin-3-ylidene)hydrazinyl)methylphosphonate]
[1]
  GI50: > 100 µM
[2]
  GI50: 46.9 µM
[3]
  GI50: 18.6 µM
[4]; SRB assay
  GI50: 67.2 µM
[5]
  GI50: < 0.1 µM
[6]
  GI50: 41.4 µM
[7]
  GI50: > 250 µM
Swiss albino mice
  Additional Observation: Convulsions: N
  Additional Observation: Diarrhea: N
  Additional Observation: Eyes Lacrimation: N
  Additional Observation: Pilo Erection: Y
  Additional Observation: Respiration: N
  Additional Observation: Salivation: N
  Additional Observation: Skin and Fur: N
  Additional Observation: Straub Tail: N
  Behavioral Observation: Analgesia: N
  Behavioral Observation: Arching & Rolling: N
  Behavioral Observation: Catalepsy: N
  Behavioral Observation: Hypnosis: N
  Behavioral Observation: Motor Activity: N
  Behavioral Observation: Muscle Spasm: N
  Behavioral Observation: Sedation: N
  Behavioral Observation: Stereotypy: N
  Behavioral Observation: Tremors: N
  No. of Death: Nil
  Toxicity: free of any toxicity and Nil
  lethal dose: above 2000 mg/kg body weight
  mortality: No mortality

## CCOP(=O)(OCC)C(NN=C1C(=O)Nc2ccccc21)c1ccc(OC)c(OC)c1 (centres unmarked) [4e, Diethyl(3,4-dimethoxyphenyl)(2-(2-oxoindolin-3-ylidene)hydrazinyl)methylphosphonate]
[1]
  GI50: > 100 µM
[2]
  anticancer activity compared with standard drug adriamycin, HT-29: equipotent
  GI50: < 0.1 µM
[3]
  GI50: 12.2 µM
[4]; SRB assay
  GI50: > 100 µM
[5]
  GI50: < 0.1 µM
[6]
  GI50: 55.2 µM
[7]
  GI50: > 250 µM

## CCOP(=O)(OCC)C(N/N=C1\C(=O)Nc2ccccc21)c1cccs1 (centres unmarked) [4i, (Z)-Diethyl(2-(2-oxoindolin-3-ylidene)hydrazinyl)(thiophen-2-yl)methylphosphonate]
[1]
  GI50: > 100 µM
[2]
  anticancer activity compared with standard drug adriamycin, HT-29: equipotent
  GI50: < 0.1 µM
[3]; Hep-G2 (human hepatoma) cell line
  anticancer activity compared with standard drug Adriamycin, Hep-G2: equipotent
[3]
  GI50: < 0.1 µM
[4]; SRB assay
  GI50: > 100 µM
[5]
  GI50: < 0.1 µM
[6]
  GI50: 55.5 µM
[7]
  GI50: > 250 µM
